Laboratory results reported in the supplement of paper PMC4862054.

Assays:
Conditions in all cases: incubation time: 72 h
MDA-MB-453 [1] = test: normalised response (% of control), CellTiter-Glo; higher = more viable cells (100 = DMSO, 0 = benzethonium chloride kill control)
Method: (§1)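 DSRT, 72 h incubation, CellTox Green / CellTiter-Glo readout. Signal is normalised to DMSO and benzethonium chloride controls. Value is the normalised response at the highest dose.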

CAL-120 [2] = test: as above
Method: as §1

CAL-85-1 [3] = test: as above
Method: as §1

CAL-148 [4] = test: as above
Method: as §1

MDA-MB-436 [5] = test: as above
Method: as §1

Hs578T [6] = test: as above
Method: as §1

HDQ-P1 [7] = test: as above
Method: as §1

HCC1937 [8] = test: as above
Method: as §1

MFM-223 [9] = test: as above
Method: as §1

BT-474 [10] = test: as above
Method: as §1

MCF-10A [11] = test: as above
Method: as §1

CAL-51 [12] = test: as above
Method: as §1

MDA-MB-231 [13] = test: as above
Method: as §1

MDA-MB-468 [14] = test: as above
Method: as §1

BT-549 [15] = test: as above
Method: as §1

HCC1143 [16] = test: as above
Method: as §1

DU-4475 [17] = test: as above
Method: as §1

SK-BR-3 = test: as above
Method: as §1

HCC1599 [18] = test: as above
Method: as §1

MDA-MB-453 [19] = test: normalised response (% of control), CellTox Green; higher = less cell death (100 = DMSO, 0 = benzethonium chloride kill control)
Method in brief: (§2)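 After 72 h with compound in 384-well plates, breast cancer cell lines seeded as 20 µl suspension were read for CellTox Green fluorescence at 485/520 nm. CellTiter-Glo luminescence was then read after 10 min at room temperature. Compound was present at 5 concentrations in 10-fold steps over a 10,000-fold range set per compound, and plates were normalised to 0.1 % DMSO (100) and a positive kill control (0). Values are normalised signals, each at a single concentration.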

CAL-120 [20] = test: as above
Method in brief: as §2

CAL-85-1 [21] = test: as above
Method in brief: as §2

CAL-148 [22] = test: as above
Method in brief: as §2

MDA-MB-436 [23] = test: as above
Method in brief: as §2

Hs578T [24] = test: as above
Method in brief: as §2

HDQ-P1 [25] = test: as above
Method in brief: as §2

HCC1937 [26] = test: as above
Method in brief: as §2

MFM-223 [27] = test: as above
Method in brief: as §2

BT-474 [28] = test: as above
Method in brief: as §2

MCF-10A [29] = test: as above
Method in brief: as §2

CAL-51 [30] = test: as above
Method in brief: as §2

MDA-MB-231 [31] = test: as above
Method in brief: as §2

MDA-MB-468 [32] = test: as above
Method in brief: as §2

BT-549 [33] = test: as above
Method in brief: as §2

HCC1143 [34] = test: as above
Method in brief: as §2

DU-4475 [35] = test: as above
Method in brief: as §2

HCC1599 [36] = test: as above
Method in brief: as §2

Row | SMILES | normalised response (MDA-MB-453 [1]) [%] | normalised response (CAL-120 [2]) [%] | normalised response (CAL-85-1 [3]) [%] | normalised response (CAL-148 [4]) [%] | normalised response (MDA-MB-436 [5]) [%] | normalised response (Hs578T [6]) [%] | normalised response (HDQ-P1 [7]) [%] | normalised response (HCC1937 [8]) [%] | normalised response (MFM-223 [9]) [%] | normalised response (BT-474 [10]) [%] | normalised response (MCF-10A [11]) [%] | normalised response (CAL-51 [12]) [%] | normalised response (MDA-MB-231 [13]) [%] | normalised response (MDA-MB-468 [14]) [%] | normalised response (BT-549 [15]) [%] | normalised response (HCC1143 [16]) [%] | normalised response (DU-4475 [17]) [%] | normalised response (SK-BR-3) [%] | normalised response (HCC1599 [18]) [%] | normalised response (MDA-MB-453 [19]) [%] | normalised response (CAL-120 [20]) [%] | normalised response (CAL-85-1 [21]) [%] | normalised response (CAL-148 [22]) [%] | normalised response (MDA-MB-436 [23]) [%] | normalised response (Hs578T [24]) [%] | normalised response (HDQ-P1 [25]) [%] | normalised response (HCC1937 [26]) [%] | normalised response (MFM-223 [27]) [%] | normalised response (BT-474 [28]) [%] | normalised response (MCF-10A [29]) [%] | normalised response (CAL-51 [30]) [%] | normalised response (MDA-MB-231 [31]) [%] | normalised response (MDA-MB-468 [32]) [%] | normalised response (BT-549 [33]) [%] | normalised response (HCC1143 [34]) [%] | normalised response (DU-4475 [35]) [%] | normalised response (HCC1599 [36]) [%]
1 | CCc1cncnc1N1CCN(Cc2nc3ccc(C(F)(F)F)cc3[nH]2)CC1 (10000 nM) | 81.6 | 89 | 91.8 | 95.4 | 95.7 | 95.7 | 102 | 82.1 | 78.3 | 85.8 | 93.8 | 49.3 | 95 | 70 | 83.9 | 90 | 89.9 | 89.5 | 85.7 | 99.9 | 99.6 | 67.3 | 103 | 102 | 72.9 | 63.1 | 90.2 | 103 | 93 | 105 | 94.5 | 118 | 103 | 95.6 | 117 | 104 | 99.2
2 | CC[C@@H]1C(=O)N(C)c2cnc(Nc3ccc(C(=O)NC4CCN(C)CC4)cc3OC)nc2N1C1CCCC1 [BI 2536] (1000 nM) | 58.9 | 52.5 | 44.7 | 79.9 | 73.8 | 24.2 | 66.6 | 74.7 | 55.6 | 75.9 | 44.4 | 31.7 | 72.4 | 42.3 | 28.3 | 39.3 | 75.6 | 26.9 | 26.5 | 101 | 79.6 | 43.9 | 70.4 | 102 | 29.2 | 93 | 109 | 90.7 | 97.5 | 100 | 32 | 101 | 98.3 | 90.3 | 113 | 95.1 | 92.2
3 | O=C(O)CCCCC(CCSCc1ccccc1)SCc1ccccc1 (stereo unspecified) [CPI-613] (10000 nM) | 105 | 104 | 97.5 | 105 | 98.2 | 99.2 | 106 | 108 | 102 | 98.9 | 103 | 97.5 | 93.6 | 98.2 | 96.5 | 100 | 100 | 106 | 101 | 104 | 98.6 | 88.7 | 99.7 | 91.2 | 94.3 | 104 | 80.9 | 97.6 | 94.8 | 104 | 103 | 90.9 | 131 | 80.4 | 92.7 | 98.8 | 102
4 | O=C(O)C1(C(=O)O)CCC1.[NH2-].[NH2-].[Pt+2] [Carboplatin] (10000 nM) | 95.8 | 101 | 96.4 | 103 | 92.5 | 99.3 | 101 | 89.2 | 102 | 98.8 | 99.2 | 114 | 96.9 | 92.4 | 103 | 103 | 96.9 | 92.8 | 108 | 94.3 | 103 | 99.3 | 97.8 | 99.8 | 135 | 80.6 | 101 | 94 | 106 | 117 | 97.1 | 103 | 108 | 88.1 |  | 99.8 | 100
5 | Nc1nc(F)nc2c1ncn2[C@@H]1O[C@H](CO)[C@@H](O)[C@@H]1O [Fludarabine] (10000 nM) | 112 | 86.1 | 83.9 | 87.6 | 53.2 | 98.3 | 96.3 | 86.3 | 108 | 82.9 | 114 | 125 | 95.2 | 105 | 79.1 | 69.9 | 106 | 99 | 78.9 | 98.5 | 96 | 68.5 | 93 | 84.9 | 93.3 | 105 | 91.6 |  | 97.5 | 101 | 101 | 103 | 119 | 93.6 | 116 | 97.6 | 101
6 | CCN(CC)CCCC(C)Nc1c2ccc(Cl)cc2nc2ccc(OC)cc12 (stereo unspecified) [Mepacrine] (50000 nM) | 98.8 | 106 | 103 | 91 | 97 | 97.7 | 101 | 100 | 93.5 | 100 | 100 | 87.4 | 94.8 | 102 | 106 | 99.2 | 92.2 | 89.3 | 113 | 61.2 | 95.8 | 101 | 88 | 91.2 | 58.1 | 99.8 | 112 | 84.8 | 104 | 103 | 99.1 |  | 89.7 | 97.8 | 104 | 96.4 | 93.3
7 | Nc1nc2[nH]cc(CCc3ccc(C(=O)N[C@@H](CCC(=O)O)C(=O)O)cc3)c2c(=O)[nH]1 [Pemetrexed] (10000 nM) | 97.5 | 81.9 | 54.2 | 88.5 | 78.1 | 18.5 | 82.7 | 65.9 | 89.7 | 39 | 91.7 | 68.3 | 48 | 93.3 | 97.2 | 91 | 93.7 | 65.9 | 75.9 | 93 | 99.8 | 81.1 | 102 | 80.4 | 65.3 | 111 | 99 | 98.8 | 77.3 | 72 | 87 | 70.5 |  | 98.9 | 119 | 96.7 | 91.5
8 | CNC(=O)c1cc(Oc2ccc(NC(=O)Nc3cc(C(C)(C)C)nn3-c3ccc4ncccc4c3)c(F)c2)ccn1 [Rebastinib] (1000 nM) | 111 | 69.2 | 87.5 | 118 | 112 | 116 | 95.7 | 99.8 | 62.2 | 81.6 | 102 | 74.1 | 77.8 | 102 | 71.3 | 102 | 96.7 | 92.1 | 102 | 104 | 85.9 |  | 101 | 85.7 | 106 |  | 107 | 101 | 89.2 | 101 | 99.7 | 102 | 64 | 77.5 | 115 | 99.7 | 100
9 | CCCS(=O)(=O)Nc1ccc(F)c(C(=O)c2c[nH]c3ncc(-c4ccc(Cl)cc4)cc23)c1F [Vemurafenib] (10000 nM) | 89.3 | 91.1 | 85.1 | 94.7 | 66.8 | 70.7 | 70.7 | 84 | 80.1 | 82.6 | 95.8 | 78.4 | 86.3 | 57.2 | 71.8 | 86.1 | 2.81 | 71 | 86.4 | 101 | 97.3 | 109 | 75.7 | 92.7 | 71.5 | 98.9 | 78.4 | 97.7 | 95.4 |  | 65.3 | 87 | 148 | 89.5 | 100 | 77.1 | 95.8
